Assay results from patent US9409905B2, “Antibacterial compounds and methods for use” (PTC THERAPEUTICS, INC., priority 2011, dated 2016).
≈ marks a conversion by molar mass, not a printed value.

What was measured:
[1] = system: Staphylococcus aureus (S. aureus) 29213; assay: Antibacterial activity, microbroth dilution MIC (Table 1); type: cell-based; settings: microbroth dilution, Gram-positive S. aureus 29213, read-out: MIC, 29213
Text: (§1) The antibacterial activity from a microbroth dilution method may be presented as the minimum inhibitory concentration (MIC in μg/mL). The MIC value is the lowest concentration of drug which prevents macroscopically visible growth under test conditions.
(§2) Antibacterial activity of test compounds against the super sensitive Gram-negative Escherichia coli (E. coli) BAS849 bacterium, the control Gram-negative E. coli 25922 strain and the Gram-positive Staphylococcus aureus (S. aureus) 29213 bacterium are shown in Table 1.

[2] = system: Escherichia coli (E. coli) BAS849; assay: as above; type: cell-based; settings: microbroth dilution, super sensitive Gram-negative E. coli BAS849, read-out: MIC, BAS849
Text: as §1, §2

[3] = system: E. coli 25922; assay: as above; type: cell-based, Escherichia coli; settings: Escherichia coli; microbroth dilution; control Gram-negative E. coli 25922 strain; read-out: MIC, 25922
Text: as §1, §2

[4] = system: E. coli LZ3111; assay: Antibacterial activity, MIC, quinolone resistant strain (Table 2); type: cell-based; settings: Escherichia coli, LZ3111, read-out: MIC LZ3111
Text: as §1
Mutations in these regions are known to confer a high level resistance to the quinolone class of antibiotics.

| SMILES | MIC [1] [µg/mL] | MIC [2] [µg/mL] | MIC [3] [µg/mL] | MIC [4] [µg/mL] |
| --- | --- | --- | --- | --- |
| CCc1cc(C(=O)O)c(=O)[nH]c1-c1ccc2ccn(C)c2c1 [Cpd 7, 5-ethyl-6-(1-methyl-1H-indol-6-yl)-2-oxo-1,2-dihydropyridine-3-carboxylic acid] | 12.5 to 150 (≈ 42.2 to 506 µM) | 1 to 3.5 (≈ 3.37 to 11.8 µM) | 12.5 to 150 (≈ 42.2 to 506 µM) | 12.5 to 150 (≈ 42.2 to 506 µM) |
| CCc1c(-c2ccc3nc(C)oc3c2)[nH]c(=O)c(C(=O)O)c1O [Cpd 12, 5-ethyl-4-hydroxy-6-(2-methylbenzo[d]oxazol-6-yl)-2-oxo-1,2-dihydropyridine-3-carboxylic acid] | 12.5 to 150 (≈ 39.8 to 477 µM) | 1 to 3.5 (≈ 3.18 to 11.1 µM) | 12.5 to 150 (≈ 39.8 to 477 µM) | 12.5 to 150 (≈ 39.8 to 477 µM) |
| CCc1cc(C(=O)O)c(=O)[nH]c1-c1cn(C)c2ccccc12 [Cpd 13, 5-ethyl-6-(1-methyl-1H-indol-3-yl)-2-oxo-1,2-dihydropyridine-3-carboxylic acid] | 12.5 to 150 (≈ 42.2 to 506 µM) | 3.5 to 12.5 (≈ 11.8 to 42.2 µM) | 12.5 to 150 (≈ 42.2 to 506 µM) |  |
| CCc1cc(C(=O)O)c(=O)[nH]c1-c1ccc2nc(-c3ccccc3)oc2c1 [Cpd 15, 5-ethyl-2-oxo-6-(2-phenylbenzo[d]oxazol-6-yl)-1,2-dihydropyridine-3-carboxylic acid] | 12.5 to 150 (≈ 34.7 to 416 µM) | 1 to 3.5 (≈ 2.77 to 9.71 µM) | 12.5 to 150 (≈ 34.7 to 416 µM) |  |
| CCc1c(-c2ccc3nc(-c4ccccc4)oc3c2)[nH]c(=O)c(C(=O)O)c1O [Cpd 16, 5-ethyl-4-hydroxy-2-oxo-6-(2-phenylbenzo[d]oxazol-6-yl)-1,2-dihydropyridine-3-carboxylic acid] | 1 to 3.5 (≈ 2.66 to 9.3 µM) | 3.5 to 12.5 (≈ 9.3 to 33.2 µM) | 12.5 to 150 (≈ 33.2 to 399 µM) |  |
| CCc1cc(C(=O)O)c(=O)[nH]c1-c1ccc2nc(N(C)C)oc2c1 [Cpd 17, 6-(2-(dimethylamino)benzo[d]oxazol-6-yl)-5-ethyl-2-oxo-1,2-dihydropyridine-3-carboxylic acid] | 1 to 3.5 (≈ 3.05 to 10.7 µM) | 3.5 to 12.5 (≈ 10.7 to 38.2 µM) | 12.5 to 150 (≈ 38.2 to 458 µM) |  |
| CCc1c(-c2ccc3nc(N(C)C)oc3c2)[nH]c(=O)c(C(=O)O)c1O [Cpd 18, 6-(2-(dimethylamino)benzo[d]oxazol-6-yl)-5-ethyl-4-hydroxy-2-oxo-1,2-dihydropyridine-3-carboxylic acid] | 1 to 3.5 (≈ 2.91 to 10.2 µM) | 3.5 to 12.5 (≈ 10.2 to 36.4 µM) | 12.5 to 150 (≈ 36.4 to 437 µM) | 12.5 to 150 (≈ 36.4 to 437 µM) |
| CCc1cc(C(=O)O)c(=O)[nH]c1-c1ccc2ncccc2c1 [Cpd 19, 5-ethyl-2-oxo-6-(quinolin-6-yl)-1,2-dihydropyridine-3-carboxylic acid] | 12.5 to 150 (≈ 42.5 to 510 µM) | 12.5 to 150 (≈ 42.5 to 510 µM) | 12.5 to 150 (≈ 42.5 to 510 µM) |  |
| CCc1cc(C(=O)O)c(=O)[nH]c1-c1ccc2c(ccn2CCO)c1 [Cpd 23, 5-ethyl-6-(1-(2-hydroxyethyl)-1H-indol-5-yl)-2-oxo-1,2-dihydropyridine-3-carboxylic acid] | 12.5 to 150 (≈ 38.3 to 460 µM) | < 1 | 3.5 to 12.5 (≈ 10.7 to 38.3 µM) | 12.5 to 150 (≈ 38.3 to 460 µM) |
| CCc1cc(C(=O)O)c(=O)[nH]c1-c1ccc2c(ccn2CC2OCCO2)c1 [Cpd 25, 6-(1-((1,3-dioxolan-2-yl)methyl)-1H-indol-5-yl)-5-ethyl-2-oxo-1,2-dihydropyridine-3-carboxylic acid] | 12.5 to 150 (≈ 33.9 to 407 µM) | < 1 | 12.5 to 150 (≈ 33.9 to 407 µM) |  |
| CCc1c(-c2ccc3c(ccn3CC3OCCO3)c2)[nH]c(=O)c(C(=O)O)c1O [Cpd 26, 6-(1-((1,3-dioxolan-2-yl)methyl)-1H-indol-5-yl)-5-ethyl-4-hydroxy-2-oxo-1,2-dihydropyridine-3-carboxylic acid] | 3.5 to 12.5 (≈ 9.11 to 32.5 µM) | < 1 | 12.5 to 150 (≈ 32.5 to 390 µM) |  |
| CCc1cc(C(=O)O)c(=O)[nH]c1-c1ccc2c(c1)c1c(n2C)CCCC1 [Cpd 27, 5-ethyl-6-(9-methyl-2,3,4,9-tetrahydro-1H-carbazol-6-yl)-2-oxo-1,2-dihydropyridine-3-carboxylic acid] | 3.5 to 12.5 (≈ 9.99 to 35.7 µM) | < 1 | 12.5 to 150 (≈ 35.7 to 428 µM) |  |
| CCc1c(-c2ccc3c(c2)c2c(n3C)CCCC2)[nH]c(=O)c(C(=O)O)c1O [Cpd 28, 5-ethyl-4-hydroxy-6-(9-methyl-2,3,4,9-tetrahydro-1H-carbazol-6-yl)-2-oxo-1,2-dihydropyridine-3-carboxylic acid] | < 1 | 12.5 to 150 (≈ 34.1 to 409 µM) | 12.5 to 150 (≈ 34.1 to 409 µM) | 12.5 to 150 (≈ 34.1 to 409 µM) |
| CCc1cc(C(=O)O)c(=O)[nH]c1-c1ccc2c(c1)c(C)c(C)n2C [Cpd 29, 5-ethyl-2-oxo-6-(1,2,3-trimethyl-1H-indol-5-yl)-1,2-dihydropyridine-3-carboxylic acid] | 12.5 to 150 (≈ 38.5 to 462 µM) | < 1 | 12.5 to 150 (≈ 38.5 to 462 µM) |  |
